These results are taken from US20260108512A1, “COMPOUNDS, COMPOSITIONS AND METHODS OF TREATING DISORDERS” (HOTSPOT THERAPEUTICS, INC., priority 2022, published 2026).

Some results are limits rather than exact numbers.

T1 sequence (Q13191 40-426): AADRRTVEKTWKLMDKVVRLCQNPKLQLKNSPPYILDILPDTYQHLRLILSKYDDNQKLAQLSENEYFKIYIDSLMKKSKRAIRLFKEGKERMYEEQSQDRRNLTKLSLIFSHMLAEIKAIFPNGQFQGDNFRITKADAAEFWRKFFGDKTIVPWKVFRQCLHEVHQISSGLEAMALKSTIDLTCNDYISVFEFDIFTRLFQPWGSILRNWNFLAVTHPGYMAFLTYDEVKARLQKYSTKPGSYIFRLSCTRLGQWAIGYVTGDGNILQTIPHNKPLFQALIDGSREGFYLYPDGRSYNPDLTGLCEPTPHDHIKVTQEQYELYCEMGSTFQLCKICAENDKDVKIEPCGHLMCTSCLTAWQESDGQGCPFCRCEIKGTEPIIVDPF

This test addresses T1, Cbl-b (Homo sapiens, UniProt Q13191).
T1 construct: biotin (biotinylated protein)
Description: Cbl-b LCK Ub TR-FRET assay. In kind it is biochemical. The following applies: average IC50, graded A-C; read-out: CBL-B_TR-FRET_AVG_IC50. As to the method: Compounds are 3-fold serially diluted in DMSO in a 384-well polypropylene plate (e.g., #P-05525-BC; Labcyte) to generate a source plate with 10 concentrations of each compound, top concentration=2 mM. 80 nL of DMSO or compounds are transferred to each well of a black 384-well ProxiPlate (e.g., #6008260; PerkinElmer) using a Labcyte Echo, 1×assay buffer (50 mM HEPES pH7.0, 100 mM NaCl, 0.01% BSA, 0.01% Triton-X100, 1 mM DTT), 2×enzyme solution (16 nM Biotin-Cbl-b or 12 nM Biotin-c-Cbl in 1×assay buffer), 2×kinase mixture (120 nM His-LCK, 1 mM ATP, 10 mM MgCl2 in assay buffer) and 2.33×detection mixture (4.66×solution 1:163 nM Anti-HA-D2 antibody (e.g., #610HADAB:PerkinElmer), 27.96 nM Streptavidin-EU (e.g., #AD0062; PerkinElmer), 1.398 mM EDTA in 1×assay buffer+4.66×solution 2:2.796 pM UBE2D2/Methylated-HA-Ubiquitin thioester adduct (e.g., BostonBiochem) in 1×assay buffer) are prepared. 4 μL of 2×enzyme solution are added to each well containing compound, briefly centrifuged to mix, and incubated for 60 min at room temperature. 4 μL of 2×kinase mixture is added, briefly centrifuged to mix, and incubated for 90 min. at room temperature. 6 μL of detection mixture is added to all wells and briefly centrifuged before incubating for 20 min at room temperature. Plates am read for TR-FRET using an Envision at excitation 340 nm, emission at 615 and 665 nm, 4 flashes per well. IC50 is generated using no LCK as the low control and DMSO as the high control.
For orientation: TR-FRET usually uses a lanthanide donor and a delayed reading to cut background.
For the compound `Cn1cnnc1[C@H](F)C1(c2cccc(-n3cc4c(C(F)(F)F)cc(CNC5(C)CCC5)cn4c3=O)c2)COC1` (single isomer, unassigned) [Compound 2], the IC50 was 501 to 10000 nM. Take `Cn1cnnc1[C@@H](F)C1(c2cccc(-n3cc4c(C(F)(F)F)cc(CNC5(C)CCC5)cn4c3=O)c2)COC1` (single isomer, unassigned) [Compound 3]: the IC50 is 501 to 10000 nM. The same measure for `Cn1cnnc1[C@@H](F)C1(c2cccc(-n3cc4c(C(F)(F)F)cc(CN)cn4c3=O)c2)COC1` (single isomer, unassigned) [Compound 5]: 101 to 500 nM; for `Cn1cnnc1[C@@H](F)[C@](C)(F)c1cccc(-n2cc3c(C(F)(F)F)cc(CN4CCC5(CC5)C4)cn3c2=O)c1` (single isomer, unassigned) [Compound 6]: less than 100 nM; for `Cn1cnnc1[C@@H](F)[C@](C)(F)c1cccc(-n2cc3c(C(F)(F)F)cc(CN4CCC5(CC5)C4)cn3c2=O)c1` (single isomer, unassigned) [Compound 7]: 101 to 500 nM. For `COC[C@H]1CCCN1Cc1cc(C(F)(F)F)c2cn(-c3cccc(C4([C@H](F)c5nncn5C)COC4)c3)c(=O)n2c1` (single isomer, unassigned) [Compound 10] the value was 501 to 10000 nM; for `COC[C@H]1CCCN1Cc1cc(C(F)(F)F)c2cn(-c3cccc(C4([C@@H](F)c5nncn5C)COC4)c3)c(=O)n2c1` (single isomer, unassigned) [Compound 11], 101 to 500 nM. For `CC(C)[C@H]1CN(C)CCN1Cc1cc(C(F)(F)F)c2cn(-c3cccc(C4([C@@H](F)c5nncn5C)CC(F)(F)C4)c3)c(=O)n2c1` (single isomer, unassigned) [Compound 12] the value was less than 100 nM.

As to `CC(C)[C@H]1CN(C)CCN1Cc1cc(C(F)(F)F)c2cn(-c3cccc(C4([C@H](F)c5nncn5C)CC(F)(F)C4)c3)c(=O)n2c1` (single isomer, unassigned) [Compound 13], the IC50 was less than 100 nM. Regarding `Cn1cnnc1[C@H](F)C1(c2cccc(-n3cc4c(C(F)(F)F)cc(CN5CC(C)(CO)C5)cn4c3=O)c2)COC1` (single isomer, unassigned) [Compound 14], the IC50 was 101 to 500 nM. Turning to `Cn1cnnc1[C@@H](F)C1(c2cccc(-n3cc4c(C(F)(F)F)cc(CN5CC(C)(CO)C5)cn4c3=O)c2)COC1` (single isomer, unassigned) [Compound 15], the IC50 was less than 100 nM.

Regarding `Cn1cnnc1[C@H](F)C1(c2cccc(-n3cc4c(C(F)(F)F)cc(CN5CC6CC5C6)cn4c3=O)c2)COC1` (single isomer, unassigned) [Compound 16], the IC50 is less than 100 nM.

`Cn1cnnc1[C@@H](F)C1(c2cccc(-n3cc4c(C(F)(F)F)cc(CN5CC6CC5C6)cn4c3=O)c2)COC1` (single isomer, unassigned) [Compound 17]: the IC50 lay within 101 to 500 nM. For `Cn1cnnc1[C@H](F)C1(c2cccc(-n3cc4c(C(F)(F)F)cc(CN5CCC5)cn4c3=O)c2)COC1` (single isomer, unassigned) [Compound 18], the IC50 was less than 100 nM.

Take `Cn1cnnc1[C@@H](F)C1(c2cccc(-n3cc4c(C(F)(F)F)cc(CN5CCC5)cn4c3=O)c2)COC1` (single isomer, unassigned) [Compound 19]: the IC50 lay in the range of 101 to 500 nM. For `CC(C)[C@H]1CN(C)CCN1Cc1cc(C(F)(F)F)c2cn(-c3cccc(C4([C@@H](F)c5nncn5C)COC4)c3)c(=O)n2c1` (single isomer, unassigned) [Compound 20] the value was less than 100 nM. On to `CC(C)[C@H]1CN(C)CCN1Cc1cc(C(F)(F)F)c2cn(-c3cccc(C4([C@H](F)c5nncn5C)COC4)c3)c(=O)n2c1` (single isomer, unassigned) [Compound 21], for which the IC50 was less than 100 nM. The same measure for `CC(C)[C@H]1CN(C)CCN1Cc1cc(C(F)(F)F)c2cn(-c3cccc(C4(Cc5nncn5C(F)F)COC4)c3)c(=O)n2c1` [Compound 1]: less than 100 nM; for `Cn1cnnc1[C@H](F)C1(c2cccc(-n3cc4c(C(F)(F)F)cc(CN)cn4c3=O)c2)COC1` [Compound 4]: 101 to 500 nM; for `Cn1cnnc1[C@@H](F)[C@@](C)(F)c1cccc(-n2cc3c(C(F)(F)F)cc(CN4CCC5(CC5)C4)cn3c2=O)c1` [Compound 8]: 101 to 500 nM. For `Cn1cnnc1[C@H](F)[C@@](C)(F)c1cccc(-n2cc3c(C(F)(F)F)cc(CN4CCC5(CC5)C4)cn3c2=O)c1` [Compound 9] the value was 501 to 10000 nM.
